2 compounds from patent US6919327B2, “Texaphyrin coordination compounds and uses thereof” (Pharmacyclics, Inc., priority 2000, dated 2005) can be followed below.

The experiment has as its system HepG2 cells. Nature of the experiment: GdTex / LuTex cell association study in HepG2 cells. Format: cell-based. The note with it: 50 μM, 4 hours. The protocol: The absorption of GdTex and LuTex, using different sources of the respective texaphyrin, in HepG2 cells was determined, by comparing absorption for GdTex and LuTex in the cell line in medium alone, in medium containing ascorbic acid, and using GdTex and LuTex that had been premixed with ascorbate for a period of time before exposure to the cell line.
The HepG2 tumor cell line, a hepatocellular carcinoma, was obtained from the American Type Culture Collection (ATCC), Manassas, Va. (Catalog # HB-8065). The HepG2 cells were maintained in Eagle's Minimal Essential medium with Earl's BSS and 2 mM L-glutamine (EMEM) that is modified by ATCC to contain 1.0 mM sodium pyruvate, 0.1 mM nonessential amino acids, and 1.5 g/L sodium bicarbonate (ATCC, Cat. # 30-2003) and supplemented with 10% fetal bovine serum (FBS) FBS (Hyclone, Logan, Utah, Lot # AHF8559) and 100U penicillin/100 ug/ml streptomycin (Sigma, St. Louis, Mo.). Cells are fed 1 to 2 times weekly and passed at 3,000,000 cells per 75 cm tissue culture flask (Costar). Cells are passed using 0.25% trypsin, 0.02% EDTA solution (50/50 PBS/trypsin (Sigma)). Cells used were at the 96th passage at the time of use.
HepG2 Cells were plated at a density of 500,000 cells per dish in 100 mm tissue culture dishes containing 10 mL of RPMI media (Gibco, Rockville, Md.) supplemented with 10% fetal bovine serum (Lot# AJC9908), and 100 U/mL penicillin/100 ug/mL streptomycin (Lot # 50K2308, Sigma, St. Louis, Mo.). Cells were plated out 1 to 2 days prior to treating with motexafin gadolinium.
The day prior to treating the dishes with GdTex (9-19-00), an “aged” solution was prepared containing 50 μM GdTex, 100 μM ascorbate, and Catalase (at a concentration 1:1000 of the stock solution concentration provided by the vendor). This solution was incubated at 37° C. 5% CO2 for approximately 24 hours prior to addition to the appropriate test dishes.
On the day of treatment, test solutions were prepared as shown in the Table I below in pre-incubated medium. […]

[1] abbreviates: freshly prepared solutions made in the presence of ascorbate (100 μM).

With `CC(=O)[O-].CC(=O)[O-].CCc1c(CC)c2cc3nc(cnc4cc(OCCOCCOCCOC)c(OCCOCCOCCOC)cc4ncc4nc(cc1[n-]2)C(CCCO)=C4C)C(C)=C3CCCO.O.[Lu+3]` [LuTex, motexafin lutetium], the “association with HepG2 cells” value under setting [1] was “comparable levels of association”.

As to `CC(=O)[O-].CC(=O)[O-].CCc1c(CC)c2cc3nc(cnc4cc(OCCOCCOCCOC)c(OCCOCCOCCOC)cc4ncc4nc(cc1[n-]2)C(CCCO)=C4C)C(C)=C3CCCO.O.[Gd+3]` [GdTex, motexafin gadolinium], the “association with HepG2 cells” value is given as “comparable levels of association” under setting [1] and “smaller than corresponding LuTex cell association” (in the absence of ascorbate).
